Measurements published in US6924391B2, “Alpha-amino,-thio,-oxo substituted ketones as phospholipase inhibitors” (Bristol-Myers Squibb Company, priority 2000, dated 2005).
Structures can show the parent of a compound that is named as a salt.

- melting point: 53 to 62 °C
SMILES: COCC(=O)C(F)(F)Cc1ccc(OCCN(C)CC(c2ccc(Cl)cc2)c2ccc(Cl)cc2)cc1 (as salt: hydrochloride) [Example 9, 4-[4-[2-[N-[2-Bis-(4-chlorophenyl)ethyl]-N-methylamino]ethoxy]phenyl]-2,2-difluoro-1-methoxy-2-butanone]
